In PubChem BioAssay (NCI) one finds TGI and GI50 data, which are given here for 14 compounds.

Among the test systems are ACHN renal; NCI-H226 lung; A549 NSCLC; COLO 205 colon; OVCAR-5 ovarian; 786-0 renal; HT29 colon; NCI-H460 lung; MDA-MB-231 breast; T-47D breast.
What all share (experiment): growth of human tumour cells (NCI), 48 h

Structures are written as SMILES.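 Grown in 96-well plates, cells were treated for 48 hours with each compound at five concentrations. Insufficient inhibition: endpoint recorded as highest concentration tested. GI50: concentration for 50% inhibition of growth. TGI marks complete inhibition of growth.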 Where only a bound is given, the exact number is not on record here.

As for `Cc1[nH]c(=O)nc(CC(O)(c2ccccc2)c2ccccc2)c1-c1ccccc1`, the TGI in the assay on ACHN renal, with NCI-H226 lung, in the assay with A549 NSCLC, with COLO 205 colon, with OVCAR-5 ovarian and in the assay on 786-0 renal was more than 100 µM in each case. Besides, the TGI in the assay on HT29 colon and with NCI-H460 lung was more than 100 µM throughout.
With `O=C1OC(c2ccccc2)=N/C1=C\c1c(O)cc(O)cc1O`, the TGI with ACHN renal, with A549 NSCLC, in the assay with COLO 205 colon, in the assay on OVCAR-5 ovarian, with 786-0 renal and with HT29 colon was more than 100 µM throughout.
Consider `COc1ccc(CCNCc2cccc(OC)c2OC)cc1OC`, for which the TGI in the assay on ACHN renal, in the assay on A549 NSCLC, with COLO 205 colon, in the assay on OVCAR-5 ovarian, in the assay on 786-0 renal and in the assay on HT29 colon was more than 100 µM in each case. This compound also showed a TGI in the assay on NCI-H460 lung of more than 100 µM.
For `CCOC(=O)c1c(C)n(CC(C)C)c2c1cc1oc(=O)c(=O)n3cnc2c13`, the GI50 in the assay on ACHN renal was 9.34 µM; in the assay with NCI-H226 lung, 9.63 µM; in the assay with A549 NSCLC, 15.7 µM; in the assay with COLO 205 colon it was 20.7 µM; with MDA-MB-231 breast, 8.18 µM; with OVCAR-5 ovarian, 29.6 µM. Further, the figures for the GI50 in the assay with 786-0 renal, in the assay with HT29 colon and in the assay with NCI-H460 lung were 20.1 µM, 17.2 µM and 16.7 µM, respectively. The TGI was 24.1 µM in the assay on ACHN renal; 29.2 µM in the assay with NCI-H226 lung; more than 50 µM in the assay with A549 NSCLC; more than 50 µM in the assay with COLO 205 colon; 22.1 µM in the assay on MDA-MB-231 breast; more than 50 µM with OVCAR-5 ovarian. Moreover, the TGI with 786-0 renal, in the assay on HT29 colon and in the assay on NCI-H460 lung was more than 50 µM each time.
`O=C(/C=C/c1c(O)ccc2ccccc12)c1cccc2ccccc12`: the TGI in the assay on ACHN renal, with NCI-H226 lung, with A549 NSCLC, with COLO 205 colon, in the assay with OVCAR-5 ovarian and in the assay with 786-0 renal was more than 100 µM in each case. In addition, the TGI in the assay with HT29 colon and with NCI-H460 lung was more than 100 µM throughout.
Turning to `CCN(CC)CCCCCOc1cc(O)c2c(=O)cc(-c3ccccc3)oc2c1`, the GI50 in the assay on ACHN renal is 3.72 µM; with NCI-H226 lung, 10.5 µM; in the assay with A549 NSCLC, 5.26 µM; with COLO 205 colon, 2.13 µM; with MDA-MB-231 breast it was 1.49 µM; in the assay on OVCAR-5 ovarian it was 2.37 µM. In addition, the GI50 in the assay with 786-0 renal was 1.97 µM; in the assay with HT29 colon, 2.21 µM; in the assay on NCI-H460 lung it was 2.24 µM. Moreover, the TGI with ACHN renal came to 11.7 µM; in the assay on NCI-H226 lung, 25.8 µM; in the assay on A549 NSCLC, 18.5 µM; in the assay with COLO 205 colon, 5.02 µM; with MDA-MB-231 breast it was 4.34 µM; with OVCAR-5 ovarian, 6.97 µM. Besides, the TGI in the assay on 786-0 renal was determined as 3.81 µM; with HT29 colon it was 5.5 µM; in the assay with NCI-H460 lung, 5.48 µM.
As to `OCC(O)COc1c(Cl)ccc(Cl)c1Cl` (stereo not drawn), the TGI in the assay with ACHN renal, in the assay on NCI-H226 lung, in the assay with A549 NSCLC, with COLO 205 colon, in the assay with OVCAR-5 ovarian and in the assay on 786-0 renal was more than 100 µM throughout. Moreover, the TGI in the assay on HT29 colon and in the assay on NCI-H460 lung was more than 100 µM each time.
Regarding `O=C(CCc1ccccc1)On1nnc2ccccc2c1=O`, the TGI in the assay with ACHN renal, in the assay with NCI-H226 lung, in the assay on A549 NSCLC, in the assay on COLO 205 colon, with OVCAR-5 ovarian and with 786-0 renal was more than 100 µM throughout. Further, the TGI in the assay with HT29 colon and with NCI-H460 lung was more than 100 µM in each case.
Take `COc1ccc(/C(Cl)=C(\C=O)c2ccc(Br)cc2)cc1OC`: the TGI in the assay on ACHN renal, in the assay on NCI-H226 lung, with A549 NSCLC, in the assay on COLO 205 colon, in the assay with OVCAR-5 ovarian and with 786-0 renal was more than 100 µM in each case. The TGI with HT29 colon and with NCI-H460 lung was more than 100 µM each time.
Consider `CN1CCN(Cc2ccc(NC(=O)c3[nH]ncc3Nc3ncnc4sccc34)cc2)CC1`, for which the GI50 was 0.699 µM with T-47D breast; 0.223 µM in the assay with ACHN renal; 0.169 µM in the assay with NCI-H226 lung; 0.263 µM in the assay on A549 NSCLC; 0.508 µM with OVCAR-5 ovarian; 0.351 µM in the assay on 786-0 renal. Besides, in the assay on NCI-H460 lung, the GI50 is 0.284 µM. Moreover, the TGI in the assay on T-47D breast is more than 100 µM; in the assay on ACHN renal, 0.791 µM; in the assay on NCI-H226 lung, more than 100 µM; in the assay on A549 NSCLC, more than 100 µM; with OVCAR-5 ovarian, more than 100 µM; in the assay on 786-0 renal, more than 100 µM. In addition, the TGI in the assay on NCI-H460 lung was more than 100 µM.
`C[C@H]1COC2(c3ccccc3)CCC(=O)N12` (stereo partly drawn): the TGI with ACHN renal, in the assay with A549 NSCLC, in the assay with COLO 205 colon, with OVCAR-5 ovarian, with 786-0 renal and in the assay with HT29 colon was more than 100 µM throughout. Also, in the assay on NCI-H460 lung, the TGI is more than 100 µM.
On to `N#CCC(=O)N/N=C1/C(=O)NC(=O)C(=O)C1c1nc2ccccc2s1` (stereo not drawn), for which the TGI with ACHN renal, in the assay with NCI-H226 lung, in the assay with A549 NSCLC, in the assay with COLO 205 colon, in the assay on OVCAR-5 ovarian and in the assay on 786-0 renal was more than 100 µM each time. Besides, the TGI in the assay on HT29 colon was more than 100 µM.
In the case of `COC(=O)C1=C(c2cc(OC)c(OC)c(OC)c2)OC(c2cc(OC)c(OC)c(OC)c2)C1COC(C)=O` (stereo not drawn), the TGI was more than 100 µM with ACHN renal; more than 100 µM with NCI-H226 lung; more than 100 µM in the assay on A549 NSCLC; 33.4 µM in the assay on COLO 205 colon; more than 100 µM with OVCAR-5 ovarian; more than 100 µM in the assay on 786-0 renal. The TGI in the assay with HT29 colon and in the assay with NCI-H460 lung was more than 100 µM throughout.
Regarding `Cc1ccc(S(=O)(=O)NC(CCC(=O)Nc2ccccc2)C(=O)Nc2ccccc2)cc1` (stereo not drawn), the GI50 in the assay on T-47D breast is 0.206 µM; with NCI-H226 lung it was 0.447 µM; in the assay on A549 NSCLC it was 0.319 µM; with 786-0 renal, 0.491 µM. Also, the TGI in the assay with T-47D breast stood at 0.934 µM; in the assay with NCI-H226 lung, 2.59 µM; in the assay on A549 NSCLC, 1.76 µM; with 786-0 renal it was 2.04 µM.
